Reference: patent US8063225B2, “Tricyclic compound derivatives useful in the treatment of neoplastic diseases, inflammatory disorders and immunomodulatory disorders” (Chembridge Corporation, priority 2006, dated 2011)

How the values were obtained:
[1] = molecular target: T1, IGF1R tyrosine kinase (Homo sapiens, UniProt P08069); assay: IGF1R tyrosine kinase assay (Kinase-Glo ATP depletion or PT66/PT100 AlphaScreen); settings: biochemical tyrosine kinase assay
T1 construct: 6×His- or GST-tagged kinase domain fragments of the corresponding RTKs expressed in baculovirus system; host or cells: baculovirus system
T1 sequence (P08069 999-1274 limits assumed): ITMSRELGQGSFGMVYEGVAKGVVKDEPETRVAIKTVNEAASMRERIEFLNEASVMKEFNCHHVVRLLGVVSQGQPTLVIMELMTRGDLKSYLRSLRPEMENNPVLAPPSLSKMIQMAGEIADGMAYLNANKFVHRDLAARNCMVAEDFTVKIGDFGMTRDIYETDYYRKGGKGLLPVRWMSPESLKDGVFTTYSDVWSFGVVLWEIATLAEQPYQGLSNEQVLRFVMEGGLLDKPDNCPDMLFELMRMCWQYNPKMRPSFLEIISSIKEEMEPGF
Protocol: (§1) To determine inhibition of several tyrosine kinases, such as IGF1R, InsR, Alk, TrkA and Jak2, kinase assays are conducted using either Kinase-Glo (Promega) or AlphaScreen (PerkinElmer) kinase assay platforms. The Kinase-Glo Luminescent Kinase Assay is a homogeneous method for measuring kinase activity by determining the amount of ATP remaining after a kinase reaction. The luminescent signal is proportional to the amount of ATP and inversely proportional to the amount of kinase activity. Tyrosine kinase PT66 AlphaScreen Assay is a high-sensitivity homogeneous, anti-phosphotyrosine antibody-mediated luminescent proximity method measuring, incorporation of phosphate in synthetic poly(Glu-Tyr) substrate. The kinase preparations used consist of purified recombinant, 6×His- or GST-tagged kinase domain fragments of the corresponding RTKs expressed in baculovirus system.
(§2) The IGF1R tyrosine kinase is assayed in Kinase-Glo ATP depletion assay using the synthetic polymer poly(Glu-Tyr, 4:1) (Sigma Chemicals) as a phosphoacceptor substrate. Each reaction mixture consists of a total volume of 10 μl and contains 40 ng of the enzyme, 5 μg of poly(Glu-Tyr), 10 μM of ATP and variable concentrations of test compounds. The mixtures also contain 50 mM Tris-HCl, pH 7.5; 5 mM MgCl2; 5 mM MnCl2; 2 mM DTT and 0.01% Tween 20. The reaction mixtures are incubated at 37° C. for 60 minutes and residual concentration of ATP in the mixture is determined by adding luciferase-containing Kinase-Glo (Promega) development reagent and counting luminescence levels using Fusion Universal Microplate Analyzer (PerkinElmer). Tested compounds are dissolved in dimethyl sulfoxide to a stock concentration of 10 mM and are typically evaluated in the assay at eight concentrations in 1 nM to 20 μM range, each in quadruplicate. […] IC50 values are derived by non-linear regression analysis using Prism 3.0 software (Graphpad Software). Other tyrosine kinases are assayed according to the same protocol after titrating amount of the enzyme to provide optimal signal-to-noise ratio and no more than 30% of total ATP consumption in the reaction conditions used.
(§3) The IGF1R tyrosine kinase is assayed in Phosphotyrosine (PT66 or PT 100) AlphaScreen chemiluminescent assay (PerkinElmer) according to the manufacturerer's recommendations. Each kinase reaction mixture consists of a total volume of 15 μl and contains 0.1-1 ng of the enzyme, 7 ng of biotinylated poly(Glu-Tyr) (Cis-Bio), 10 μM of ATP and variable concentrations of test compounds. The mixtures also contain 50 mM Tris-HCl, pH 7.5; 5 mM MgCl2; 5 mM MnCl2; 2 mM DTT and 0.01% Tween 20. The reaction mixtures are incubated at room temperature for 30 minutes. Ten (10) μl of the mixture of […] and donor beads (as supplied by the manufacturer) is then added to the reaction and the incubation is continued for an additional 60 minutes.

[2] = molecular target: T2, InsR (Homo sapiens, UniProt P06213); assay: Tyrosine kinase assay (Kinase-Glo or AlphaScreen), InsR; settings: biochemical tyrosine kinase assay
T2 construct: 6×His- or GST-tagged kinase domain fragments of the corresponding RTKs expressed in baculovirus system; host or cells: baculovirus system
T2 sequence (P06213 1023-1298 limits assumed, species assumed): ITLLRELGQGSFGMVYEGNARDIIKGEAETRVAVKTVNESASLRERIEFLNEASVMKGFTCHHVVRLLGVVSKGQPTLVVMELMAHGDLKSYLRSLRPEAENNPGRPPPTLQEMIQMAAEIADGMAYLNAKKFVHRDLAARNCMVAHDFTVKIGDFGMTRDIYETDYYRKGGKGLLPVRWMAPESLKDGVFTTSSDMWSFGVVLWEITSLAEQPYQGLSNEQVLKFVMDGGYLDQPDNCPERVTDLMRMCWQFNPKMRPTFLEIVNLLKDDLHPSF
Protocol: as §1, §2, §3

[3] = molecular target: T3, Alk (Homo sapiens, UniProt Q9UM73); assay: Tyrosine kinase assay (Kinase-Glo or AlphaScreen), Alk; settings: biochemical tyrosine kinase assay
T3 construct: 6×His- or GST-tagged kinase domain fragments of the corresponding RTKs expressed in baculovirus system; host or cells: baculovirus system
T3 sequence (Q9UM73 1116-1392 limits assumed, species assumed): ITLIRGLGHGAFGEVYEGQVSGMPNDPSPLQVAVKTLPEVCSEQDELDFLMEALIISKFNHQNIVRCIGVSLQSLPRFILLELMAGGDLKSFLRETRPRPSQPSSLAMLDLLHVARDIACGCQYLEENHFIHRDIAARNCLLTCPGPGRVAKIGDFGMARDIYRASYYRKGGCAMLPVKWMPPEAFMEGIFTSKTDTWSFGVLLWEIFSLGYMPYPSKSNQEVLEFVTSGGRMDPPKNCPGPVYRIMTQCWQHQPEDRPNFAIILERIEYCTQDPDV
Protocol: as §1, §2, §3

[4] = molecular target: T4, Jak2 (Homo sapiens, UniProt O60674); assay: Tyrosine kinase assay (Kinase-Glo or AlphaScreen), Jak2; settings: biochemical tyrosine kinase assay
T4 construct: 6×His- or GST-tagged kinase domain fragments of the corresponding RTKs expressed in baculovirus system; host or cells: baculovirus system
T4 sequence (O60674 849-1124 limits assumed, species assumed): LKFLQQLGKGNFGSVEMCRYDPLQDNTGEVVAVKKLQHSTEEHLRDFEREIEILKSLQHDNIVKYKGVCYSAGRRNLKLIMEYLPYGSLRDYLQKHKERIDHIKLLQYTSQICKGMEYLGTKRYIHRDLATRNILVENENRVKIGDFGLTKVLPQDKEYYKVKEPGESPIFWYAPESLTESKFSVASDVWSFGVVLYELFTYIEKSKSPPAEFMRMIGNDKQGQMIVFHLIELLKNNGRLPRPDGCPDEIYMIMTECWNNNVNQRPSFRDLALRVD
Protocol: as §1, §2, §3

[5] = test system: Ba/F3; assay: Cell proliferation inhibition, Cell Titer-Glo, Ba/F3; assay type: cell-based; settings: Mus musculus, BaF3; cell proliferation assay, Ba/F3 cells
Excerpt: (§4) IGF1R and other tyrosine kinase inhibitors can inhibit the proliferation of certain cancer cell lines indicating their possible therapeutic utility for treating the corresponding cancer types. Cancer cell lines of interest and control normal lines, including CHO, HEK293, BA/F3, COLO205, PC3, DU145, MCF7, Panc1, ACHN, Hep G2, H460, K562, TT, U87-MG, CAOV-3, SK-MEL5, Karpas 299 and human multiple myeloma cell lines H929, MM1s, MM1r, UTMC2, CPM2, KMS11, My5, KMS12PE, My7, JJN3, KMS18, U266, SKMM2, RPMI-8226 are plated in white, clear-bottomed 384-well cell culture plates at 2500-5000 cells per well and supplied with dilutions of tested compounds After a desired period of time (typically 3 days), the number of viable cells is quantitated by using Cell Titer-Glo Luminescent Cell Viability Assay (Promega), a cell proliferation assay system based on detection of total amount of ATP present as a measure of cell metabolic activity. The plated cells are mixed with the Cell Titer-Glo developing reagent and counted in a luminescence multiwell plate reader according to the standard manufacturer's protocol to generate IC50 curves for cell proliferation inhibition. Results are typically reported as percent of growth (% viability =(OD72h(compound)−ODday0))/(OD72h(no compound)−ODday0). Alternatively, viable cells are quantitated by using the conventional colorimetric MTT assay. The MTT assay is based on the cleavage of the yellow tetrazolium salt MTT to purple formazan crystal by metabolic active cells. The formazan is then solubilized, and the concentration determined by optical density at 570 nm. The cells plated and incubated with a compound as described above are supplemented with the solution of MTT and incubated for 2-3 hours. The growth medium is removed and dimethyl sulfoxide is added into each well to dissolve the formazan. The absorbance is measured on an ELISA plate reader with a test wavelength of 570 nm and a background subtraction wavelength of 630 nm to obtain sample signal (OD570-OD630). […] The results are reported in terms of IC50 value for a particular compound and a cell line in the standard 3-day proliferation assay using Cell Titer-Glo. […] The results are reported in terms of IC50 value for a particular compound and a cell line in the standard 3-day proliferation assay using MTT assay.

[6] = test system: Karpas-299; assay: Cell proliferation inhibition, Cell Titer-Glo, Karpas-299; assay type: cell-based; settings: Homo sapiens; cell proliferation assay, Karpas-299 cells
Excerpt: as §4

[7] = test system: K562; assay: Cell proliferation inhibition, Cell Titer-Glo, K562; assay type: cell-based; settings: Homo sapiens; cell proliferation assay, K562 cells
Excerpt: as §4

IC50 [1] [µM] | IC50 [2] [µM] | IC50 [3] [µM] | IC50 [4] [µM] | IC50 [5] [µM] | IC50 [6] [µM] | IC50 [7] [µM] | SMILES
0.5 to 5 | 0.5 to 5 | 0.5 to 5 | 0.5 to 5 | > 15 | > 15 | > 15 | CN1CCC(N2C(=O)c3cc4nc(-c5c(NC[C@@H](O)Cn6cnc7ccccc76)ccnc5O)[nH]c4cc3C2=O)CC1 [compound 49]
0.5 to 5 | 5 to 15 | 5 to 15 | 0.5 to 5 | > 15 | > 15 | > 15 | COc1cc(C#N)ccc1OC[C@H](O)CNc1ccnc(O)c1-c1nc2cc3c(cc2[nH]1)C(=O)N(C1CCN(C)CC1)C3=O [compound 50]
> 15 | > 15 | > 15 | > 15 | > 15 | > 15 | > 15 | CCN(CC)C(=O)c1ccc(OC[C@H](O)CNc2ccnc(O)c2-c2nc3cc4c(cc3[nH]2)C(=O)N(C2CCN(C)CC2)C4=O)c(OC)c1 [compound 51]
< 0.5 | 0.5 to 5 | 0.5 to 5 | 0.5 to 5 | > 15 | > 15 | > 15 | CN1CCC(N2C(=O)c3cc4nc(-c5c(NC[C@@H](O)COc6cccc(C#N)c6)ccnc5O)[nH]c4cc3C2=O)CC1 [compound 52]
5 to 15 | 5 to 15 | 0.5 to 5 | 0.5 to 5 | > 15 | > 15 | > 15 | CN1CCC(N2C(=O)c3cc4nc(-c5c(NC[C@@H](O)COc6cccc(N7CCOCC7)c6)ccnc5O)[nH]c4cc3C2=O)CC1 [compound 53]
< 0.5 | 0.5 to 5 | 5 to 15 | > 15 | 5 to 15 | 5 to 15 | 5 to 15 | COc1cc(C)ccc1OC[C@H](O)CNc1ccnc(O)c1-c1nc2cc3c(cc2[nH]1)C(=O)N(C1CCN(C)CC1)C3=O [compound 54]
< 0.5 | 0.5 to 5 | 0.5 to 5 | 0.5 to 5 | 0.5 to 5 | 0.5 to 5 | 0.5 to 5 | Cc1ccc(Cl)cc1OC[C@H](O)CNc1ccnc(O)c1-c1nc2cc3c(cc2[nH]1)C(=O)N(C1CCN(C)CC1)C3=O [compound 55]
0.5 to 5 | 0.5 to 5 | 0.5 to 5 | 0.5 to 5 | 0.5 to 5 | 0.5 to 5 | 0.5 to 5 | Cc1ccc(Cl)cc1OC[C@@H](O)CNc1ccnc(O)c1-c1nc2cc3c(cc2[nH]1)C(=O)N(C1CCN(C)CC1)C3=O [compound 56]
0.5 to 5 | 0.5 to 5 | 0.5 to 5 | 0.5 to 5 | 0.5 to 5 | 5 to 15 | 5 to 15 | COc1cc(F)ccc1OC[C@H](O)CNc1ccnc(O)c1-c1nc2cc3c(cc2[nH]1)C(=O)N(C1CCN(C)CC1)C3=O [compound 57]
0.5 to 5 | 0.5 to 5 | 0.5 to 5 | 5 to 15 | 5 to 15 | 5 to 15 | 5 to 15 | COc1cc(F)ccc1OC[C@@H](O)CNc1ccnc(O)c1-c1nc2cc3c(cc2[nH]1)C(=O)N(C1CCN(C)CC1)C3=O [compound 58]
0.5 to 5 | 0.5 to 5 | 5 to 15 | 0.5 to 5 | > 15 | > 15 | > 15 | CN(C)CC(C)(C)CN1C(=O)c2cc3nc(-c4c(NC[C@@H](O)c5cccc(Cl)c5)ccnc4O)[nH]c3cc2C1=O [compound 60]
0.5 to 5 | 5 to 15 | > 15 | 5 to 15 | > 15 | > 15 | > 15 | CN(C)CC(C)(C)CN1C(=O)c2cc3nc(-c4c(NCC(O)COc5cccc(Cl)c5)ccnc4O)[nH]c3cc2C1=O (centres unmarked) [compound 61]
< 0.5 | 0.5 to 5 | 5 to 15 | 5 to 15 | 5 to 15 | 5 to 15 | 0.5 to 5 | Cc1ccc(OCC(O)CNc2ccnc(O)c2-c2nc3cc4c(cc3[nH]2)C(=O)N(CC(C)(C)CN(C)C)C4=O)c(C)c1 (centres unmarked) [compound 62]
> 15 | > 15 | 0.5 to 5 | > 15 | > 15 | > 15 | > 15 | Cc1ccc(OCC(O)CNc2ccnc(O)c2-c2nc3cc4c(cc3[nH]2)C(=O)N(CCCn2cccn2)C4=O)c(C)c1 (centres unmarked) [compound 63]
5 to 15 | 5 to 15 | > 15 | 5 to 15 | > 15 | > 15 | > 15 | CN1CCC(N2C(=O)c3cc4nc(-c5c(NN)ccnc5O)[nH]c4cc3C2=O)CC1 [compound 65]
> 15 | > 15 | > 15 | > 15 | > 15 | > 15 | > 15 | CC(C)CNCC(O)CNc1ccnc(O)c1-c1nc2cc3c(cc2[nH]1)C(=O)N(C1CCN(C)CC1)C3=O (centres unmarked) [compound 66]
> 15 | 5 to 15 | 5 to 15 | 0.5 to 5 | > 15 | > 15 | > 15 | CN1CCC(N2C(=O)c3cc4nc(-c5c(NNC(=O)C(O)c6ccccc6)ccnc5O)[nH]c4cc3C2=O)CC1 (centres unmarked) [compound 67]
< 0.5 | 0.5 to 5 | 5 to 15 | 0.5 to 5 | > 15 | > 15 | > 15 | Cc1ccc(OC[C@H](O)CNc2ccnc(O)c2-c2nc3cc4c(cc3[nH]2)C(=O)N(C2CCN(C)CC2)C4=O)c(C)n1 [compound 68]
0.5 to 5 | 0.5 to 5 | 5 to 15 | 0.5 to 5 | > 15 | > 15 | > 15 | Cc1ccc(OC[C@H](O)CNc2ccnc(O)c2-c2nc3cc4c(cc3[nH]2)C(=O)N(C2CCN(C)CC2)C4=O)cn1 [compound 69]
5 to 15 | 5 to 15 | 5 to 15 | 0.5 to 5 | > 15 | > 15 | > 15 | CN1CCC(N2C(=O)c3cc4nc(-c5c(NC[C@@H](O)COc6cccnc6)ccnc5O)[nH]c4cc3C2=O)CC1 [compound 70]
